Measurements reported in US20130096100A1, “DI(ARYLAMINO)ARYL COMPOUND” (ASTELLAS PHARMA INC., priority 2007, published 2013).

Columns and labels:
[1] = system: human non-small cell lung cancer cell line NCI-H2228 cells (EML4-ALK fusion protein-expressing cells); assay: Inhibitory effect against anchorage-independent cell growth of NCI-H2228 cells (Test Example 3); format: cell-based; conditions: 120 h, spheroid plate, 5 days, CellTiter-Glo
Source text: Measurement for anchorage-independent cell growth (colony method, etc) has been known to be a system for investigating the anticancer action (pharmacological effect) of test compounds (Clinical Oncology, second edition, Cancer and Chemotherapy Publishers Inc.). In place of the colony method, there is a following method using spheroid plates for measuring the growth of non-attached cells.
(§1) In a 96-well spheroid plate (Sumilon Celltight Spheroid 96U; Sumitomo Bakelite Co., Ltd., Japan), human non-small cell lung cancer cell line NCI-H2228 cells were seeded at 2000 cells per well in RPMI1640 medium (Invitrogen) containing 10% fetal bovine serum. NCI-H2228 cells are those expressing another EML4-ALK fusion protein, which is different from the EML4-ALK fusion protein v1 because it is encoded by an EML4-ALK fusion polynucleotide whose fusion point on EML4 cDNA is different from that of the EML4-ALK fusion polynucleotide v1, but whose ALK region is the same as that of the EML4-ALK fusion polynucleotide v1. The above NCI-H2228 cells seeded in the plate were cultured overnight under 5% CO2 at 37° C., followed by addition of a test compound (final concentration: 10 μM to 1 nM). As a negative control, DMSO used as a solvent was added at the same concentration as the test compound. Then, the cells were cultured under 5% CO2 at 37° C. for 5 days. A cell counting reagent (CellTiter-Glo™ Luminescent Cell Viability Assay; Promega) was added and agitated for 20 minutes, followed by measurement with a luminometer (ML3000 microtiter plate luminometer; Dynatech Laboratories).

[2] = system: human non-small cell lung cancer cell line HCC827 cells (mutant EGFR protein-expressing cells); assay: Inhibitory effect against anchorage-independent cell growth of HCC827 cells (Test Example 4); format: cell-based; conditions: 120 h, spheroid plate, 5 days, CellTiter-Glo
Protocol: as §1
Evaluation of Inhibitory Effect Against Anchorage-Independent Cell Growth of Human Non-Small Cell Lung Cancer Cell Line HCC827 Cells (Mutant EGFR (with Partial Deletion of Exon 19 in EGFR) Protein-Expressing Cells, American Type Culture Collection)
Evaluation was performed in the same manner as shown in Test Example 3.

[3] = target: T1, EML4-ALK fusion protein v1 (Homo sapiens, UniProt Q9UM73, D1529E/I1461V/K1491R); assay: Inhibitory activity against the kinase activity of EML4-ALK fusion protein v1 (Test Example 1); format: biochemical; conditions: ATP 100 μM, reaction 1 hour, HTRF KinEASE-TK
T1 construct: FLAG (N); made in house
T1 sequence (Q9UM73 with tags, fused parts or gaps I1461V/K1491R/D1529E): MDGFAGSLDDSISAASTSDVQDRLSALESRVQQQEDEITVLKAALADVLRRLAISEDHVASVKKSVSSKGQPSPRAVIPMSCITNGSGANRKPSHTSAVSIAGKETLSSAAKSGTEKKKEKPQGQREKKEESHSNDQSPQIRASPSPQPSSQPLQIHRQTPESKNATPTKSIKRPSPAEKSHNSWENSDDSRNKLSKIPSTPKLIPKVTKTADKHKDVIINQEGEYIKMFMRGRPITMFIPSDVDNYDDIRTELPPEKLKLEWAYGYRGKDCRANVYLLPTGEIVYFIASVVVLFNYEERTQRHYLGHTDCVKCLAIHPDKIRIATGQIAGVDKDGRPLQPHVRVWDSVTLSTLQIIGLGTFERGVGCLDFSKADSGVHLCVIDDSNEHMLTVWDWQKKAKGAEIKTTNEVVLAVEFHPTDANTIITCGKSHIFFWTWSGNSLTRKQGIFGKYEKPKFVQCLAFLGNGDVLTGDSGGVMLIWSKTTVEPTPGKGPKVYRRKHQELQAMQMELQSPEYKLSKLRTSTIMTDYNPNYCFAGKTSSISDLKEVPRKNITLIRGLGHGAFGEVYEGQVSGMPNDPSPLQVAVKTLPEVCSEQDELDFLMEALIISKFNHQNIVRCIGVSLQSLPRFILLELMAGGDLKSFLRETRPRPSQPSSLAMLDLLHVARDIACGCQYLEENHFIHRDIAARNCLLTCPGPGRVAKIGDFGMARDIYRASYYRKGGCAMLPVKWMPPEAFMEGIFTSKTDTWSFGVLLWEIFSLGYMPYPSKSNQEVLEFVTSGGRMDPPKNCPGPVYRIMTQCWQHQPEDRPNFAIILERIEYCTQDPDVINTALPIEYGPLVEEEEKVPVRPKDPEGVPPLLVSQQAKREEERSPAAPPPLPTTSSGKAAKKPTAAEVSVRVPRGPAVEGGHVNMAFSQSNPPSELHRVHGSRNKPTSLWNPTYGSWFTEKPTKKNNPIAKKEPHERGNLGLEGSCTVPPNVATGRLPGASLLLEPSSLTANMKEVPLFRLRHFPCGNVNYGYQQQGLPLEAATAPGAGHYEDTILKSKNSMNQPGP
Protocol: (§2) EML4-ALK fusion protein v1 (purified from BA/F3 cells expressing EML4-ALK fusion protein v1) was investigated for its phosphorylation activity toward a peptide substrate by using a kinase activity detection kit (HTRF KinEASE-TK; Cisbio Inc.). […] The ATP concentration used was 100 μM. Another reaction solution was prepared to contain the enzyme protein but no test compound (in which the solvent DMSO alone was added at 0.4% in place of the test compound), followed by reaction in the same manner with or without ATP addition. […] The concentration causing 50% inhibition (IC50) was calculated for each test compound by the logistic regression method.
(§3) N-terminally FLAG-tagged EML4-ALK fusion protein v1 was inserted into a vector pMX-iresCD8 capable of co-expression of insert cDNA and cell surface antigen CD8 (J. Biol. Chem., 2001, vol. 276, p. 39012-39020) to create a vector FLAG-EML4-ALKv1/pMX-iresCD8 expressing both FLAG-EML4-ALKv1 and CD8. FLAG-EML4-ALKv1/pMX-iresCD8 was used to create a recombinant retrovirus in the same manner as described above and infected into mouse lymphoid cell line BA/F3 cells. Using a magnetic bead reagent for cell separation and a purification column (anti-CD8 monoclonal antibody immobilized on magnetic beads and a MiniMACS purification column; both are products of Miltenyi Biotec Inc.), cell surface CD8-expressing cells were purified conveniently. […] After washing 3 times with PBS, the cells were lysed in a lysis solution (50 mM Tris.HCl (pH 7.4), 150 mM NaCl, 1% Triton X100, 5 mM EDTA, 5 mM EGTA, 1 mM NaVO4, 1 mM DTT and protease inhibitor cocktail complete). The EML4-ALK fusion protein v1 present in the supernatant obtained after centrifugation was purified using ANTI-FLAG M2 Affinity Gel (SIGMA-ALDRICH Inc.) according to the method described in the product information document.
(§4) The EML4-ALK fusion protein v1 purified as above was investigated for its phosphorylation activity toward a peptide substrate using a kinase activity detection kit (HTRF KinEASE-TK; Cisbio Inc.). Using TK substrate 1, which was included in the kit, as the substrate, and after adding no ATP or 100 μM ATP, the mixtures were reacted at room temperature for 1 hour, and the count of HTRF was detected as recommended by the Kits manufacturer.

[4] = target: T1, EML4-ALK fusion protein v1; assay: Inhibitory effect of compounds against the in vitro kinase activity of EML4-ALK fusion protein v1, single concentration (Test Example 12(3)); format: biochemical; conditions: final concentration 10 μM
Source text: as §3, §4

[5] = target: T2, Mutant EGFR (L858R) protein (Homo sapiens, UniProt P00533, L858R); assay: Inhibitory activity against the kinase activity of mutant EGFR (L858R) protein (Test Example 2); format: biochemical; conditions: ATP 5 μM, reaction 1 hour, HTRF KinEASE-TK
T2 construct: purchased Cana Biosciences Inc., Japan (sic; Carna Biosciences)
T2 sequence (P00533 25-1210 L858R): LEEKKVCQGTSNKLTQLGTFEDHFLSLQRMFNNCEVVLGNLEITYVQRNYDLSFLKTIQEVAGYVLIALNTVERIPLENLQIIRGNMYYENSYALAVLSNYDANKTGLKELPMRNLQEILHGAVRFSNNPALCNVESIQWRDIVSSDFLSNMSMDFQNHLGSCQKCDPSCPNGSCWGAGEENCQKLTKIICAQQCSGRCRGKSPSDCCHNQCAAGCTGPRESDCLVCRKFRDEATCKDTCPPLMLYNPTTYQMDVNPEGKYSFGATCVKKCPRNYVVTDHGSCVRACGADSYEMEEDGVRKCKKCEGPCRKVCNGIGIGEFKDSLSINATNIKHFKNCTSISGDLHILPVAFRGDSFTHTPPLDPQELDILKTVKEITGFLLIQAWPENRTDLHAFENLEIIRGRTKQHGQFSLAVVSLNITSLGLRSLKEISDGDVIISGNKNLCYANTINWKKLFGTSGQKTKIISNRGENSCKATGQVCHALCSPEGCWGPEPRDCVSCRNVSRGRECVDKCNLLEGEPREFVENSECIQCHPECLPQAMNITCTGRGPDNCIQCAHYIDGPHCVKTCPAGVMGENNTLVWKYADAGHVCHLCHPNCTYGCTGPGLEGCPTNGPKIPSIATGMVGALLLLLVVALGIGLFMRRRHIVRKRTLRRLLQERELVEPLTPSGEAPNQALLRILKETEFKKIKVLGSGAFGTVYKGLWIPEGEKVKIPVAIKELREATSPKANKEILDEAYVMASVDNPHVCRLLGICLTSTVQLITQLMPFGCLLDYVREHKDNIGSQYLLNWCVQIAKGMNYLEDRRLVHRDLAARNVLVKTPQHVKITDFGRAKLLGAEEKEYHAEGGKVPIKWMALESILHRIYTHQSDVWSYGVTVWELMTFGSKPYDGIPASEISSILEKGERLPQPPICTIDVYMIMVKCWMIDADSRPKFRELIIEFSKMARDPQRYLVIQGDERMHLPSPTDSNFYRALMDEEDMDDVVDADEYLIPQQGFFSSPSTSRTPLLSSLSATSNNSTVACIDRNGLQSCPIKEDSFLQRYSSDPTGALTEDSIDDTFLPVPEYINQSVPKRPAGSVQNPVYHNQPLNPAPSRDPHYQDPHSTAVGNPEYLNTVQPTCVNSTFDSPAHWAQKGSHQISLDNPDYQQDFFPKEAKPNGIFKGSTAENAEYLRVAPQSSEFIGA
Protocol: The ATP concentration used was 5 μM. Another reaction solution was prepared to contain the enzyme protein but no test compound (in which the solvent DMSO alone was added at 0.4% in place of the test compound), followed by reaction in the same manner with or without ATP addition. […] The concentration causing 50% inhibition (IC50) was calculated for each test compound by the logistic regression method.

MUSK = target: T3, MUSK (Homo sapiens, UniProt O15146); assay: Inhibitory activity against the kinase activity of MUSK protein (Test Example 7); format: biochemical; set-up: purchased Carna Biosciences Inc., Japan; conditions: ATP 10 μM, reaction 1 hour, HTRF KinEASE-TK
T3 sequence (O15146 24-869): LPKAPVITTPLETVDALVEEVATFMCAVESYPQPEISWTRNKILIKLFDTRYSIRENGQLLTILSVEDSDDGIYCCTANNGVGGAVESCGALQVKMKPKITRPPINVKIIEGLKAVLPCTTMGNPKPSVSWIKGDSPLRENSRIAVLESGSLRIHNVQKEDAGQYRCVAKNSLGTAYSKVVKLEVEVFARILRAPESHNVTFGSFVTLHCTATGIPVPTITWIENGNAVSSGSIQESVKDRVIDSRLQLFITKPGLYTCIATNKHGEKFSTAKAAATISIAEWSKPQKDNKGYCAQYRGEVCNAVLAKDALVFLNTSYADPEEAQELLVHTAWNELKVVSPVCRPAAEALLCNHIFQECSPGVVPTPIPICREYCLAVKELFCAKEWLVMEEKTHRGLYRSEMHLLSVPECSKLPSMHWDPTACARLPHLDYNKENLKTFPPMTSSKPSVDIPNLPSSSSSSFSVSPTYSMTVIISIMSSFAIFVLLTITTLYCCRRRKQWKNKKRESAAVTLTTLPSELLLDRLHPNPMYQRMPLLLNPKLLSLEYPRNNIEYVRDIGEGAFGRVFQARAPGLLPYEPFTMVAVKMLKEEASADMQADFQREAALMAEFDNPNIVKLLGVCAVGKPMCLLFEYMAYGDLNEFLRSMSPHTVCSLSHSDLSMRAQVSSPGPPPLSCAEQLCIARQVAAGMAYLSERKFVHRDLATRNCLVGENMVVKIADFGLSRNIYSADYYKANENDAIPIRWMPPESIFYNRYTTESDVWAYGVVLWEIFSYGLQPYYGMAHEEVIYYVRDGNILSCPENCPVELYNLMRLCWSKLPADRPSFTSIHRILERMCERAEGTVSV
Protocol: as §2, with “MUSK” for “EML4-ALK fusion”, “(Carna Biosciences Inc., Japan)” for “v1 (purified from BA/F3 cells expressing EML4-ALK fusion protein v1)”, “10” for “100”

[6] = system: v1 expressing 3T3 cells (tumor); assay: Antitumor effect on v1 expressing 3T3 cells inoculated in nude mice (Test Example 13); format: in vivo; conditions: oral 10 mg/kg once a day for 14 days, started 7 days after inoculation, BALB/c nude mice
Protocol: 3×10^6 cells of v1 expressing 3T3 cells suspended in PBS were inoculated subcutaneously by injection to the back of 5 weeks old male BALB/c nude mice (Charles River Japan, Inc.). […] Administrations were performed once a day for 14 days, and body weight and tumor size were measured every other day. Tumor volume was calculated using the following formula.
[Tumor volume (mm^3)]=[Tumor major axis (mm)]×[tumor minor axis (mm)]^2×0.5
The antitumor effect of compound D was investigated by the similar procedure with the following exceptions. The administration of the compound was started after 6 days of the inoculation and carried out once a day for 10 days.

Q: Which IC50 [1] does the source give for `CNS(=O)(=O)c1ccccc1Nc1ncnc(Nc2ccc(N3CCC(N4CCN(C)CC4)CC3)cc2OC)n1` [Example 7, 2-{[4-({2-methoxy-4-[4-(4-methylpiperazin-1-yl)piperidin-1-yl]phenyl}amino)-1,3,5-triazin-2-yl]amino}-N-methylbenzenesulfonamide] here?
A: 87 nM

Q: And the IC50 [2]?
A: 214 nM

Q: What about the IC50 [3] of the same compound?
A: 50 nM

Q: Which IC50 [1] does the source give for `COc1cc(N2CCC(N3CCC(O)C3)CC2)ccc1Nc1ncnc(Nc2ccccc2S(=O)(=O)C(C)C)n1` (stereo not shown) [Example 63] here?
A: 96 nM

Q: What about the IC50 [2] of the same compound?
A: 791 nM

Q: And the IC50 [3]?
A: 26 nM

Q: With `O=C(COc1ccc(OC(F)(F)F)cc1)NCc1nc(C(=O)NCCc2cccc(Cl)c2)cs1` [Compound B, N-[2-(3-chlorophenyl)ethyl]-2-[({[4-(trifluoromethoxy)phenoxy]acetyl}amino)methyl]-1,3-thiazole-4-carboxamide] as the compound, how does the inhibition at 10 µM [4] read?
A: 56%

Q: Which results are given for `COc1cc(N2CCC3(CCCN3C)CC2)ccc1Nc1ncnc(Nc2ccccc2S(=O)(=O)C(C)C)n1` [Example 120]?
A: IC50 [1]: 168 nM; IC50 [2]: 660 nM; IC50 [3]: 74 nM

Q: For `COc1cc(N2CC(N3CCN(C)CC3)C2)ccc1Nc1ncnc(Nc2ccccc2S(=O)(=O)C(C)C)n1` [Example 176], which IC50 [1] is on record?
A: 119 nM

Q: What about the IC50 [2] of the same compound?
A: 496 nM

Q: What about the IC50 [3] of the same compound?
A: 150 nM

Q: What does the source list for `COc1cc(N2CCC(N3CCN(C)CC3)CC2)ccc1Nc1ncnc(Nc2ccccc2S(=O)(=O)NC(C)C)n1` [Example 149]?
A: IC50 [1]: 62 nM; melting point: 185 to 189 °C; IC50 [2]: 512 nM; IC50 [3]: 40 nM

Q: Which results are given for `COc1cc(N(C)C2CCN(C)CC2)ccc1Nc1ncnc(Nc2ccccc2S(=O)(=O)C(C)C)n1` [Example 52]?
A: IC50 [1]: 159 nM; IC50 [2]: 820 nM; IC50 [3]: 72 nM

Q: With `COc1cc(N2CCC(N3CCN(C)CC3)CC2)ccc1Nc1ncnc(Nc2ccccc2S(=O)(=O)NC2CC2)n1` [Example 171] as the compound, how does the IC50 [1] read?
A: 61 nM

Q: What about the IC50 [2] of the same compound?
A: 252 nM

Q: What about the IC50 [3] of the same compound?
A: 33 nM

Q: For `COc1cc(N2CCN(C)CC2)ccc1Nc1ncnc(Nc2ccccc2S(=O)(=O)C(C)C)n1` [Example 24], which IC50 [1] is on record?
A: 125 nM

Q: And the IC50 [2]?
A: 1030 nM

Q: And the IC50 [3]?
A: 29 nM

Q: Which IC50 [5] does the source give for `COc1cc(N2CCC(N3CCN(C)CC3)CC2)ccc1Nc1ncnc(Nc2ccccc2S(=O)(=O)N(C)C)n1` [Example 128] here?
A: 98 nM

Q: And the IC50 [1]?
A: 64 nM

Q: What about the IC50 (MUSK) of the same compound?
A: 1800 nM

Q: What about the melting point of the same compound?
A: 167 to 170 °C

Q: And the IC50 [2]?
A: 175 nM

Q: What about the IC50 [3] of the same compound?
A: 2.3 nM

Q: Which IC50 [1] does the source give for `COc1cc(N2CCN(C3CCN(C)CC3)CC2)ccc1Nc1nc(Nc2ccccc2S(=O)(=O)C(C)C)c2ccccc2n1` [Example 45] here?
A: 1040 nM

Q: What about the melting point of the same compound?
A: 109 to 114 °C

Q: And the IC50 [2]?
A: 1900 nM

Q: And the IC50 [3]?
A: 66 nM

Q: Which results are given for `COc1cc(N2CCC(N3CCCC3)CC2)ccc1Nc1ncnc(Nc2ccccc2S(=O)(=O)C(C)C)n1` [Example 58]?
A: IC50 [1]: 156 nM; IC50 [2]: 648 nM; IC50 [3]: 25 nM

Q: Which IC50 [1] does the source give for `COc1cc(N2CCC3(CCCCN3C)CC2)ccc1Nc1ncnc(Nc2ccccc2S(=O)(=O)C(C)C)n1` [Example 12] here?
A: 134 nM

Q: And the melting point?
A: 132 to 135 °C

Q: What about the IC50 [2] of the same compound?
A: 509 nM

Q: What about the IC50 [3] of the same compound?
A: 61 nM

Q: Which IC50 [1] does the source give for `COc1cc(N2CCNCC2)ccc1Nc1ncnc(Nc2ccccc2S(=O)(=O)C(C)C)n1` [Example 72] here?
A: 93 nM

Q: And the IC50 [2]?
A: 670 nM

Q: And the IC50 [3]?
A: 51 nM

Q: For `COc1cc(N2CCC(N3CCN(C)CC3)CC2)ccc1Nc1ncc(Cl)c(Nc2ccccc2S(=O)(=O)C(C)C)n1` [Compound C], which “inhibition of the growth of v1 expressing 3T3 cells (tumor)” value [6] is on record?
A: 103%

Q: For `COc1cc(N2CCC(N3CCN(C)CC3)CC2)ccc1Nc1ncnc(Nc2ccccc2S(=O)(=O)N(C)C(C)C)n1` [Example 166], which IC50 [1] is on record?
A: 125 nM

Q: What about the melting point of the same compound?
A: 162 to 164 °C

Q: What about the IC50 [2] of the same compound?
A: 419 nM

Q: What about the IC50 [3] of the same compound?
A: 49 nM

Q: Which inhibition at 10 µM [4] does the source give for `COc1cc2ncnc(Nc3ccc(O)c(Br)c3)c2cc1OC` [Compound A, 4-[(3′-bromo-4′-hydroxyphenyl)amino]-6,7-dimethoxyquinazoline] here?
A: 99%
